This note sets out measurements from article PMC9225715, “Development of PD3 and PD3-B for PDEδ inhibition to modulate KRAS activity” (Journal of Enzyme Inhibition and Medicinal Chemistry, 2022).

The target of series [1] is T1, PDEδ (Homo sapiens, UniProt O43924).
T1 construct: made in house; host or cells: E. coli BL21(DE3)
Nature of the series: FP-based competition binding assay using excess deltarasin. On the procedure:
Figure 3. Binding affinities of PDs measured by fluorescence polarisation. (A) Representative binding curve of PDs (PD3) titrated with PDEδ. The FP value was measured in PBS buffer (pH 7.2) containing 8 concentrations (0, 0.5, 1, 2, 4, 8, 16 and 32 μM) of PDEδ mixed with 0.5 μM PDs. Ex: 440 nm, Em: 526 nm; (B) Kd value and half-life of each compound; (C, D) Kinetic trace of PD3 and PD7 in the competition assay. PD3 was shown as a compound with the longest retention time (slow dissociation), whereas PD7 was shown as a compound with the shortest retention time (fast dissociation). The half-life was obtained by a competition binding assay using excess deltarasin. The optimal concentration of PDEδ for the competition assay was determined using the Kd value and PD concentration (0.5 μM) for making more than 68% of the binding complex. Ex: 430 nm, Em: 520 nm. TEXT PRINTED IN THE PICTURE: (A) PD3: Best-fit values Bmax: 261.7; Best-fit values Kd: 0.4991; Std. Error Bmax: 17.98; Std. […] Error Bmax 17.98 (last digit 8 or 6) and Std. Error Kd 0.1956 (5 and 6 not certain) / Panels C and D: k and half-life are printed without a label of their own; assigned to PD3 and PD7 from the panel legends (PDEδ+PD3+Del, PDEδ+PD7+Del)
To confirm that the PD compound occupies the same farnesylation binding site as deltarasin in PDEδ and to exclude the possibility that the FP signal resulted from non-specific hydrophobic interactions, we carried out a FP-based competition assay. PDs (0.5 µM) were incubated with the purified PDEδ protein for 2 h to ensure complete binding between the compound and the protein. Then, deltarasin was added to replace the PD compound in the prenyl binding pocket of PDEδ, which decreased the FP due to the free rotation of the released PD compound. As shown in Figure 3(B), the reverse correlation between Kd values and half-lives was observed (Figure 3(B) and Table 1). […] The rate constants and half-lives were measured only when the increased concentration of deltarasin produced concentration-independent kinetic parameters, which reflects complete displacement of the binding site with the deltarasin. The kinetic trace was fit to a single exponential decay to generate the dissociation rate constant and half-life. Given that the Kd value is a ratio of koff/kon in a simple bimolecular binding model, the measured half-life and Kd are not always matched due to the contribution from the association rate constant. Figure 3(C) (PD3) and 3 D (PD7) show a representative kinetic trace obtained in the competition assay.
Deltarasin, a well-known PDEδ inhibitor, was purchased from Chemietek (Indianapolis, IN) for the competition assay. Assay buffer and the plate were the same as used in fluorescence polarisation assay. The optimal concentration of PDEδ was determined based on the Kd values and ligand concentration (0.5 µM) to ensure the formation of ligand-protein complex. The mixture of PDEδ and compounds were incubated for 2 h at 4 °C. After adding deltarasin to the mixture, FP was immediately recorded by SpectraMax M5 microplate reader (Molecular Devices, San Jose, CA) with excitation at 430 nm and emission at 520 nm. In SpectraMax M5 microplate reader, single excitation and emission wavelengths need to be used for testing all compounds. Therefore, Ex 430/Em 520 was used for competition binding assay. The selected ex/em wavelengths have only a difference of less than 10 nm from the maximum wavelengths, and there was no critical issue for conducting assay. The kinetic trace was fit to a single exponential decay to generate dissociation rate constant and half-life.

The target of series [2] is T1, PDEδ. Nature of the series: Fluorescence measurement after incubation with recombinant PDEδ. Format: binding. To be noted: 2 µM PD + 2 µM PDEδ, 20 mM Tris buffer pH 7.5, Ex 280 nm. The method, then: With the structural rationale for the binding to PDEδ from the molecular docking studies, we measured the fluorescence responses of the PDs after incubation with recombinant PDEδ proteins to confirm the binding of PDs to PDEδ. We envisioned that the hydrophobic environment of the prenyl binding pocket of PDEδ, as depicted in Figure 1(C), could enhance the fluorescent signal due to the solvatochromic characteristics of IQ scaffold. In addition, tryptophan residues near the binding site of PDEδ and the fluorophore of PDs could act as a fluorescence resonance energy transfer (FRET) pair. […] All recoded spectra of PDs are depicted in Supplemental Figure S1. To compare the binding abilities of PD derivatives to the target protein, same concentration (2 µM) of PD compound was treated and then fluorescence intensity was measured in Spectrofluorometer FP-6500.
The fluorescence changes were measured to determine the interaction between PD compounds and PDEδ protein. The fluorescence spectra were obtained under Tris buffer [20 mM Tris-HCl (pH 7.5), 100 mM NaCl] at 20 °C. The concentration of PDEδ was 2 µM. After the addition of 2 µM PD compound, the mixture was gently inverted 3 times and then incubated for 1 min. The emission spectra were recorded on Spectrofluorometer FP-6500 (JASCO, Tokyo, Japan) at Ex 280 nm. The band width was 3 nm for excitation and 5 nm for emission.

Series [3] has as its target T1, PDEδ. Nature of the series: Native gel electrophoresis with in-gel fluorescence (target specificity). The series is classed as binding. To be noted: 5 or 50 µM PD3, PDEδ-overexpressing bacterial lysate or purified PDEδ, 12% native gel. The method, then:
We also conducted native gel electrophoresis to further verify the specific binding of PD3 to native PDEδ using in-gel fluorescence scanning. […] We assumed that PD3 bound within the tertiary structure would be identified on the native gel. PD3 was incubated with bacterial lysate containing the overexpressed PDEδ protein (Figure 4(C,D), lanes 1–3) or purified PDEδ (Figure 4(C,D), lanes 4–6), and then these samples were run in a native gel to avoid denaturation of the protein. The in-gel fluorescence shown in Figure 4(C) (Ex: 312 nm, Em: 585–625 nm) was compared to the same gel stained with Coomassie that visualised the protein bands (Figure 4(D)), which confirmed the formation of the PD3-target protein complex. As expected, the fluorescence band was detected at the location of PDEδ and only detected in the lane with PD3 (lanes 2, 3, 5, and 6).
PD3 (5 or 50 µM) was added to the bacterial lysate (390 µM) or purified PDEδ protein (22.9 µM) and the mixture was incubated for 2 h at 4 °C. The samples were loaded on each lane and separated by 12% native PAGE in a running buffer [25 mM Tris-HCl (pH 8.0), 500 mM NaCl, 10 mM imidazole, 10% Glycerol] with 1/4 pellet of protease inhibitor (Roche, Penzberg, Upper Bavaria, Germany). The gels were run at 70 V for 2.5 h, followed by in-gel fluorescence measurement. The same gel was stained by Coomassie brilliant blue to visualise protein bands.

For `Cc1ccc(-c2nc3ccccc3c3cc4ccccn4c23)cc1` [PD3, 6-(p-tolyl)indolizino[3,2-c]quinoline], the Half-life in series [1] (representative kinetic trace, single exponential decay) came out at 45 min; in series [1] (retention in PDEδ on displacement by excess deltarasin, 0.5 µM PD, mean ± SD of three independent experiments), 41 ± 6 min. The koff in series [1] (representative kinetic trace, single exponential decay, read-out: dissociation rate constant k (converted)) was 0.00025 s⁻¹. For the same molecule, the “Fluorescence response upon incubation with PDEδ” value in series [2] is “exceeded the maximum detection limit of Spectrofluorometer”. Moreover, the “Binding specificity to PDEδ by in-gel fluorescence” value in series [3] is “specifically binds to PDEδ in bacterial lysates”.
